Assay results: patent publication US6353119B1, “Preparation of 3-substituted-4-arylquinolin-2-one derivatives” (Bristol-Myers Squibb Company, priority 1999, dated 2002)

Tests used:
[1] = test system: ICP/BP responses elicited by stimulation of the cavernous nerve; assay: In vivo erectile function model, intracavernous pressure response to cavernous nerve stimulation; design: species or system rat; settings: 0.1-1 mg/kg i.v.; anesthetized rats
Description: The in vivo model on erectile function is described fully in the scientific literature (Rehman, J., Chenven, E., Brink, P. Peterson, B., Wolcott, B., Wen, Y. P., Melman, A., Christ, G.: Diminished neurogenic but not pharmacological erections in the 2- to 3-month experimentally diabetic F-344 rat. Am. J. Physiol. 272: H1960-H1971, 1997). Briefly, rats (250-600 g) were anesthetized using sodium pentobarbital, the abdomen opened and the cavernous nerve identified. A pressure catheter was placed in the right corpus cavernosum (crus) to measure intracavernous pressure (ICP). A second catheter was introduced into the carotid artery to measure blood pressure. Test compound (0.1, 0.3 and 1 mg/kg i.v.) or vehicle (PEG 400) was given via a catheter placed into the jugular vein.
Control intracavernous pressure responses were elicited by electrically stimulating the cavernous nerve via bipolar stimulating electrodes (20 Hz, 0.22 ms pulse width). Stimulus amplitude (0.2-20 mA) was adjusted to produce a submaximal intracavernous pressure response (typically 0.2 or 0.5 mA). A series of control intracavernous pressure responses were then obtained using a constant stimulus amplitude. Test compound or vehicle was then administered (200 μl i.v bolus) and the cavernous nerve was restimulated to evoke a cavernous pressure response at various times post-drug administration. […]

[2] = test system: cloned mammalian (mSlo or hSlo) BK channels heterologously expressed in Xenopus oocytes; assay: BK-mediated outward current in Xenopus oocytes, two-electrode voltage clamp; format: cell-based, Xenopus oocyte; settings: at 20 μM; IBTX-sensitive current; at least 5 oocytes
Description: The ability of compounds described in the present invention to open BK channels and increase whole-cell outward (K^+) BK-mediated currents was assessed under voltage-clamp conditions by determining their ability to increase cloned mammalian (mSlo or hSlo) BK-mediated outward current heterologously expressed in Xenopus oocytes [Butler, A., et al., Science, 261: 221-224 (1993); and Dworetzky, S. I., et al., Mol. Brain Res., 27: 189-193 (1994)]. The two BK constructs employed represent nearly structurally identical homologous proteins, and have proven to be pharmacologically identical in our tests. To isolate BK current from native (background, non-BK) current, the specific and potent BK channel-blocking toxin iberiotoxin (IBTX) [Galvez, A., et al., J. Biol. Chem., 265: 11083-11090 (1990)] was employed at a supramaximal concentration (50 nM). The relative contribution of BK channels current to total outward current was determined by subtraction of the current remaining in the presence of IBTX (non-BK current) from the current profiles obtained in all other experimental conditions (control, drug, and wash). […] All compounds were tested in at least 5 oocytes and are reported at the single concentration of 20 μM; the effect of the selected compounds of Formula I on BK current was expressed as the percent of control IBTX-sensitive current and is listed in Table 1. […]

[3] = test system: permanent MCAO focal stroke model; assay: Permanent focal ischemia, middle cerebral artery occlusion (MCAO) model; format: in vivo, spontaneously hypertensive rat; settings: 0.003 mg/kg i.v. single bolus 2 hours after MCAO; infarct measured 24 hours after MCAO; vs vehicle-treated control
Description: To determine the ability of these compounds to reduce cell loss resulting from neuronal ischemia, a standard rodent model of permanent focal ischemia, involving occlusion of the middle cerebral artery in the spontaneously hypertensive rat (middle cerebral artery occlusion (MCAO) model) was employed [Tamura, A., et al., Journal of Cerebral Blood Flow and Metabolism, Volume 1, 53-60, (1981)]. Selected compounds have been evaluated in the focal stroke model involving permanent MCAO in the spontaneously hypertensive rat. This procedure results in a reliably large neocortical infarct volume that is measured by means of vital dye exclusion in serial slices through the brain 24 hours after MCAO. In the present test, compounds were administered using an intravenous route of administration at 2 hours after occlusion.

Compound	ICP/BP responses elicited by sub-maximal stimulation of the cavernous nerve [1]	BK Current, percent increase over BK current in controls [2]	melting point [°C]	reduction of cortical infarct volume [3]
O=c1[nH]c2ccc(C(F)(F)F)cc2c(-c2cc(Cl)ccc2O)c1CCO [Example 4, 4-(5-Chloro-2-hydroxyphenyl)-3-(2-hydroxyethyl)-6-(trifluoromethy)-2(1H)-quinolinone]	produced an augmentation of the ICP/BP responses	++ (++ = >200%)	–	–
COc1ccc(Cl)cc1-c1c(CCO)c(=O)[nH]c2ccc(C(F)(F)F)cc12 [Example 5, 4-(5-Chloro-2-methoxyphenyl)-3-(2-hydroxyethyl)-6-(trifluoromethyl)-2(1H)-quinolinone]	–	++ (++ = >200%)	216 to 217	about 25%
